Assay results reported in patent US8741915B2, “Dihydropyrimidin-2(1H)-one compounds as S-nitrosoglutathione reductase inhibitors” (N30 Pharmaceuticals, Inc., priority 2009, dated 2014).

Each molecule was assayed against GSNOR (Homo sapiens (Human), UniProt P11766) (assay: GSNOR assay (inhibition of GSNOR activity in vitro, change in 340 nm absorbance with GSNO/NADH)). Conditions: GSNOR IC50, Table 1, racemates and separated enantiomers.
Chain of GSNOR (P11766 whole entry): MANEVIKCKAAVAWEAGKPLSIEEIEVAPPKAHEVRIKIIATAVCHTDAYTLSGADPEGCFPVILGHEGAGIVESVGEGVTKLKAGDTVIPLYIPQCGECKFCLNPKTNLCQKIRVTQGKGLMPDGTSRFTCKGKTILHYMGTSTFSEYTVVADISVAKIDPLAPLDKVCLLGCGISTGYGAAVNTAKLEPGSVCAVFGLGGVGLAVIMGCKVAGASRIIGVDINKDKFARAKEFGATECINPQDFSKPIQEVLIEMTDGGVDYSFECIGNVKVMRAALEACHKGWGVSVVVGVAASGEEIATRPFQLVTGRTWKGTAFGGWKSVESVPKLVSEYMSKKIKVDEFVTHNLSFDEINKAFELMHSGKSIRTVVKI

Compound | IC50
CCOc1cc([C@@H]2NC(=O)NC(c3cnn(C)c3)=C2c2ccsc2)cc(C(=O)O)c1O [Example 146, (S)-3-ethoxy-2-hydroxy-5-(6-(1-methyl-1H-pyrazol-4-yl)-2-oxo-5-(thiophen-3-yl)-1,2,3,4-tetrahydropyrimidin-4-yl)benzoic acid] | 13 nM
Cn1cc(C2=C(c3ccsc3)[C@H](c3ccc(C(=O)O)c(O)c3)NC(=O)N2)cn1 [Example 169, (S)-2-hydroxy-4-(6-(1-methyl-1H-pyrazol-4-yl)-2-oxo-5-(thiophen-3-yl)-1,2,3,4-tetrahydropyrimidin-4-yl)benzoic acid] | 23 nM

Same assay, conditions: IC50, upper bound (about <)

Compound | IC50
COc1cc(C2NC(=O)NC(c3ccccc3)=C2c2ccccc2)cc([N+](=O)[O-])c1O (centres unmarked) [Example 9, 4-(4-hydroxy-3-methoxy-5-nitrophenyl)-5,6-diphenyl-3,4-dihydropyrimidin-2(1H)-one] | < 100 nM
CCOc1cc(C2NC(=O)NC(c3ccccc3)=C2c2ccccc2F)cc([N+](=O)[O-])c1O (centres unmarked) [Example 13, 4-(3-ethoxy-4-hydroxy-5-nitrophenyl)-5-(2-fluorophenyl)-6-phenyl-3,4-dihydropyrimidin-2(1H)-one] | < 100 nM
CCOc1cc(C2NC(=O)NC(c3ccccc3)=C2c2cccc(OC)c2)cc([N+](=O)[O-])c1O (centres unmarked) [Example 23, 4-(3-ethoxy-4-hydroxy-5-nitrophenyl)-5-(3-methoxyphenyl)-6-phenyl-3,4-dihydropyrimidin-2(1H)-one] | < 100 nM
CCOc1cc(C2NC(=O)NC(c3ccccc3)=C2c2ccccc2C)cc([N+](=O)[O-])c1O (centres unmarked) [Example 26, 4-(3-ethoxy-4-hydroxy-5-nitrophenyl)-6-phenyl-5-o-tolyl-3,4-dihydropyrimidin-2(1H)-one] | < 1000 nM
CCOc1cc(C2NC(=O)NC(c3ccccc3)=C2c2cccc(C#N)c2)cc([N+](=O)[O-])c1O (centres unmarked) [Example 29, 3-(4-(3-ethoxy-4-hydroxy-5-nitrophenyl)-2-oxo-6-phenyl-1,2,3,4-tetrahydropyrimidin-5-yl)benzonitrile] | < 100 nM
CCOc1cc(C2NC(=O)NC(c3cccc(C#N)c3)=C2c2ccccc2)cc([N+](=O)[O-])c1O (centres unmarked) [Example 53, 3-(6-(3-ethoxy-4-hydroxy-5-nitrophenyl)-2-oxo-5-phenyl-1,2,3,6-tetrahydropyrimidin-4-yl)benzonitrile] | < 100 nM
CCOc1cc(C2NC(=O)NC(c3ccc4c(c3)OCO4)=C2c2ccccc2)cc([N+](=O)[O-])c1O (centres unmarked) [Example 61, 6-(benzo[d][1,3]dioxol-5-yl)-4-(3-ethoxy-4-hydroxy-5-nitrophenyl)-5-phenyl-3,4-dihydropyrimidin-2(1H)-one] | < 100 nM
CCOc1cc(C2NC(=O)NC(c3ccc(C#N)cc3)=C2c2ccccc2)cc([N+](=O)[O-])c1O (centres unmarked) [Example 63, 4-(6-(3-ethoxy-4-hydroxy-5-nitrophenyl)-2-oxo-5-phenyl-1,2,3,6-tetrahydropyrimidin-4-yl)benzonitrile] | < 100 nM
CCOc1cc(C2NC(=O)NC(c3ccccc3)=C2c2ccccc2)cc(C#N)c1O (centres unmarked) [Example 69, 3-ethoxy-2-hydroxy-5-(2-oxo-5,6-diphenyl-1,2,3,4-tetrahydropyrimidin-4-yl)benzonitrile] | < 1000 nM
CCOc1cc(C2NC(=O)NC(c3ccncc3)=C2c2ccccc2)cc([N+](=O)[O-])c1O (centres unmarked) [Example 71, 4-(3-ethoxy-4-hydroxy-5-nitrophenyl)-5-phenyl-6-(pyridin-4-yl)-3,4-dihydropyrimidin-2(1H)-one] | < 100 nM
CCOc1cc(C2NC(=O)NC(c3ccc(NC(C)=O)cc3)=C2c2ccccc2)cc([N+](=O)[O-])c1O (centres unmarked) [Example 73, N-(4-(6-(3-ethoxy-4-hydroxy-5-nitrophenyl)-2-oxo-5-phenyl-1,2,3,6-tetrahydropyrimidin-4-yl)phenyl)acetamide] | < 100 nM
CCOc1cc(C2NC(=O)NC(c3cccc4ccccc34)=C2c2ccccc2)cc([N+](=O)[O-])c1O (centres unmarked) [Example 81, 4-(3-ethoxy-4-hydroxy-5-nitrophenyl)-6-(naphthalen-1-yl)-5-phenyl-3,4-dihydropyrimidin-2(1H)-one] | < 100 nM
CCOc1cc(C2NC(=O)NC(c3ccc(NC(=O)OC)cc3)=C2c2ccccc2)cc([N+](=O)[O-])c1O (centres unmarked) [Example 83, methyl 4-(6-(3-ethoxy-4-hydroxy-5-nitrophenyl)-2-oxo-5-phenyl-1,2,3,6-tetrahydropyrimidin-4-yl)phenylcarbamate] | < 100 nM
O=C1NC(c2ccccc2)=C(c2ccccc2)C(c2cccc(C(=O)O)c2)N1 (centres unmarked) [Example 93, 3-(2-oxo-5,6-diphenyl-1,2,3,4-tetrahydropyrimidin-4-yl)benzoic acid] | < 100000 nM
O=C1NC(c2ccccc2)=C(c2ccccc2)C(c2ccc(O)c([N+](=O)[O-])c2)N1 (centres unmarked) [Example 95, 4-(4-hydroxy-3-nitrophenyl)-5,6-diphenyl-3,4-dihydropyrimidin-2(1H)-one] | < 1000 nM
CCOc1cc(C2NC(=O)NC(c3ccco3)=C2c2ccccc2)cc([N+](=O)[O-])c1O (centres unmarked) [Example 111, 4-(3-ethoxy-4-hydroxy-5-nitrophenyl)-6-(furan-2-yl)-5-phenyl-3,4-dihydropyrimidin-2(1H)-one] | < 100 nM
CCOc1cc(C2NC(=O)NC(c3ccc(C(F)(F)F)cc3)=C2c2ccccc2)cc([N+](=O)[O-])c1O (centres unmarked) [Example 113, 4-(3-ethoxy-4-hydroxy-5-nitrophenyl)-5-phenyl-6-(4-(trifluoromethyl)phenyl)-3,4-dihydropyrimidin-2(1H)-one] | < 100 nM
CCOc1cc([C@@H]2NC(=O)NC(c3cnn(C)c3)=C2c2ccsc2)cc(C(=O)O)c1O [Example 146, (S)-3-ethoxy-2-hydroxy-5-(6-(1-methyl-1H-pyrazol-4-yl)-2-oxo-5-(thiophen-3-yl)-1,2,3,4-tetrahydropyrimidin-4-yl)benzoic acid] | < 100 nM
CCOc1cc(C2NC(=O)NC(c3ccccc3)=C2c2ccccc2)cc(O)c1C(=O)O (centres unmarked) [Example 161, 2-ethoxy-6-hydroxy-4-(2-oxo-5,6-diphenyl-1,2,3,4-tetrahydropyrimidin-4-yl)benzoic acid] | < 100 nM
O=C1NC(c2ccccc2)=C(c2ccccc2)C(c2cc(O)c(C(=O)O)c(Cl)c2)N1 (centres unmarked) [Example 163, 2-chloro-6-hydroxy-4-(2-oxo-5,6-diphenyl-1,2,3,4-tetrahydropyrimidin-4-yl)benzoic acid] | < 100 nM
COc1cc(C2NC(=O)NC(c3ccccc3)=C2c2ccccc2)cc(O)c1C(=O)O (centres unmarked) [Example 165, 2-hydroxy-6-methoxy-4-(2-oxo-5,6-diphenyl-1,2,3,4-tetrahydropyrimidin-4-yl)benzoic acid] | < 100 nM
Cn1cc(C2=C(c3ccccc3)C(c3ccc(C(=O)O)c(O)c3)NC(=O)N2)cn1 (centres unmarked) [Example 167, 2-hydroxy-4-(6-(1-methyl-1H-pyrazol-4-yl)-2-oxo-5-phenyl-1,2,3,4-tetrahydropyrimidin-4-yl)benzoic acid] | < 100 nM
Cn1cc(C2=C(c3ccsc3)[C@H](c3ccc(C(=O)O)c(O)c3)NC(=O)N2)cn1 [Example 169, (S)-2-hydroxy-4-(6-(1-methyl-1H-pyrazol-4-yl)-2-oxo-5-(thiophen-3-yl)-1,2,3,4-tetrahydropyrimidin-4-yl)benzoic acid] | < 100 nM
CN(C)CCOc1cc(C2NC(=O)NC(c3ccccc3)=C2c2ccccc2)cc([N+](=O)[O-])c1O (centres unmarked) [Example 170, 4-(3-(2-(dimethylamino)ethoxy)-4-hydroxy-5-nitrophenyl)-5,6-diphenyl-3,4-dihydropyrimidin-2(1H)-one] | < 1000 nM
CCOc1cc(C2NC(=O)NC(C3CCCC3)=C2c2ccccc2)cc([N+](=O)[O-])c1O (centres unmarked) [Example 172, 6-cyclopentyl-4-(3-ethoxy-4-hydroxy-5-nitrophenyl)-5-phenyl-3,4-dihydropyrimidin-2(1H)-one] | < 100 nM
CCOc1cc(C2NC(=O)NC(C3CCCCC3)=C2c2ccsc2)cc([N+](=O)[O-])c1O (centres unmarked) [Example 174, 6-cyclohexyl-4-(3-ethoxy-4-hydroxy-5-nitrophenyl)-5-(thiophen-3-yl)-3,4-dihydropyrimidin-2(1H)-one] | < 100 nM
CCOc1cc(C2NC(=O)NC(c3ccccc3)=C2C2CCCCC2)cc([N+](=O)[O-])c1O (centres unmarked) [Example 177, 5-cyclohexyl-4-(3-ethoxy-4-hydroxy-5-nitrophenyl)-6-phenyl-3,4-dihydropyrimidin-2(1H)-one] | < 100 nM
